These are literature values, as cited in patent US20220347165A1, “EFFERVESCENT ORAL COMPOSITION” (NICOVENTURES TRADING LIMITED, priority 2021, published 2022).

For data set [1] the following is noted: when isolated; isomerizes to trans-bixin.

For `CC(/C=C/C=C(C)/C=C/C(=O)O)=C\C=C\C=C(C)\C=C\C=C(C)\C=C\C(=O)O` (stereo in doubt) [norbixin, (2E,4E,6E,8E,10E,12E,14E,16E,18E)-4,8,13,17-tetramethylicosa-2,4,6,8,10,12,14,16,18-nonaenedioic acid], the solubility in water entry was “water soluble”.

For `COC(=O)/C=C/C(C)=C\C=C\C(C)=C\C=C\C=C(C)\C=C\C=C(C)\C=C\C(=O)O` [bixin, (2E,4E,6E,8E,10E,12E,14E,16Z,18E)-20-methoxy-4,8,13,17-tetramethyl-20-oxoicosa-2,4,6,8,10,12,14,16,18-nonaenoic acid], the solubility in water result is on record as “insoluble in water”. In addition, where the note is “fats and alcohols”, the “solubility in fats and alcohols” value is “soluble in fats and alcohols”. For the same molecule, in data set [1], the chemical stability entry is given as “chemically unstable when isolated”.
